In patent publication US6054435A, “6-O-substituted macrolides having antibacterial activity” (priority 1999, dated 2000):
≈ marks a conversion by molar mass, not a printed value.

Key:
Assay in all cases: in vitro antibacterial activity (MIC), agar dilution
Assay type in all cases: cell-based
[1] = test system: Candida albicans CCH 442; details: organism code TT; BHI agar, 35-37° C., 20 to 24 hours; unit assumed
Description: (§1) Representative compounds of the present invention were assayed in vitro for antibacterial activity as follows: Twelve petri dishes containing successive aqueous dilutions of the test compound mixed with 10 mL of sterilized Brain Heart Infusion (BHI) agar (Difco 0418-01-5) were prepared. Each plate was inoculated with 1:100 (or 1:10 for slow-growing strains, such as Micrococcus and Streptococcus) dilutions of up to 32 different microorganisms, using a Steers replicator block. […] In addition, a control plate, using BHI agar containing no test compound, was prepared and incubated at the beginning and end of each test.
(§2) An additional plate containing a compound having known susceptibility patterns for the organisms being tested and belonging to the same antibiotic class as the test compound was also prepared and incubated as a further control, as well as to provide test-to-test comparability.
(§3) After incubation, each plate was visually inspected. The minimum inhibitory concentration (MIC) was defined as the lowest concentration of drug yielding no growth, a slight haze, or sparsely isolated colonies on the inoculum spot as compared to the growth control.

[2] = test system: Enterococcus faecium ATCC 8043; details: organism code II; BHI agar, 35-37° C., 20 to 24 hours; unit assumed
Description: as §1, §2, §3

[3] = test system: Escherichia coli DC-2; details: organism code SS; BHI agar, 35-37° C., 20 to 24 hours; unit assumed
Description: as §1, §2, §3

[4] = test system: Escherichia coli JUHL; details: organism code QQ; BHI agar, 35-37° C., 20 to 24 hours; unit assumed
Description: as §1, §2, §3

[5] = test system: Escherichia coli SS; details: organism code RR; BHI agar, 35-37° C., 20 to 24 hours; unit assumed
Description: as §1, §2, §3

[6] = test system: Haemophilis Influenzae DILL AMP R; details: organism code WW; BHI agar, 35-37° C., 20 to 24 hours; unit assumed
Description: as §1, §2, §3

[7] = test system: Micrococcus luteus ATCC 4698; details: organism code PP; BHI agar, 35-37° C., 20 to 24 hours; unit assumed
Description: as §1, §2, §3

[8] = test system: Micrococcus luteus ATCC 9341; details: organism code OO; BHI agar, 35-37° C., 20 to 24 hours; unit assumed
Description: as §1, §2, §3

[9] = test system: Mycobacterium smegmatis ATCC 114; details: organism code UU; BHI agar, 35-37° C., 20 to 24 hours; unit assumed
Description: as §1, §2, §3

[10] = test system: Nocardia Asteroides ATCC9970; details: organism code VV; BHI agar, 35-37° C., 20 to 24 hours; unit assumed
Description: as §1, §2, §3

[11] = test system: Staphylococcus aureus 1775; details: organism code GG; BHI agar, 35-37° C., 20 to 24 hours; unit assumed
Description: as §1, §2, §3

[12] = test system: Staphylococcus aureus A-5278; details: organism code CC; BHI agar, 35-37° C., 20 to 24 hours; unit assumed
Description: as §1, §2, §3

[13] = test system: Staphylococcus aureus A5177; details: organism code BB; BHI agar, 35-37° C., 20 to 24 hours; unit assumed
Description: as §1, §2, §3

[14] = test system: Staphylococcus aureus ATCC 6538P; details: organism code AA; BHI agar, 35-37° C., 20 to 24 hours; unit assumed
Description: as §1, §2, §3

[15] = test system: Staphylococcus aureus CMX 553; details: organism code FF; BHI agar, 35-37° C., 20 to 24 hours; unit assumed
Description: as §1, §2, §3

[16] = test system: Staphylococcus aureus CMX 642A; details: organism code DD; BHI agar, 35-37° C., 20 to 24 hours; unit assumed
Description: as §1, §2, §3

[17] = test system: Staphylococcus aureus NCTC10649M; details: organism code EE; BHI agar, 35-37° C., 20 to 24 hours; unit assumed
Description: as §1, §2, §3

[18] = test system: Staphylococcus epidermidis 3519; details: organism code HH; BHI agar, 35-37° C., 20 to 24 hours; unit assumed
Description: as §1, §2, §3

[19] = test system: Streptococcus Pneumonia 5649; details: organism code ZZA; BHI agar, 35-37° C., 20 to 24 hours; unit assumed
Description: as §1, §2, §3

[20] = test system: Streptococcus Pneumonia 5979; details: organism code ZZ; BHI agar, 35-37° C., 20 to 24 hours; unit assumed
Description: as §1, §2, §3

[21] = test system: Streptococcus Pneumonia ATCC6303; details: organism code XX; BHI agar, 35-37° C., 20 to 24 hours; unit assumed
Description: as §1, §2, §3

[22] = test system: Streptococcus Pneumonia GYR 1171; details: organism code YY; BHI agar, 35-37° C., 20 to 24 hours; unit assumed
Description: as §1, §2, §3

[23] = test system: Streptococcus agalactiae CMX 508; details: organism code KK; BHI agar, 35-37° C., 20 to 24 hours; unit assumed
Description: as §1, §2, §3

[24] = test system: Streptococcus bovis A-5169; details: organism code JJ; BHI agar, 35-37° C., 20 to 24 hours; unit assumed
Description: as §1, §2, §3

[25] = test system: Streptococcus pyogenes 930; details: organism code MM; BHI agar, 35-37° C., 20 to 24 hours; unit assumed
Description: as §1, §2, §3

[26] = test system: Streptococcus pyogenes EES61; details: organism code LL; BHI agar, 35-37° C., 20 to 24 hours; unit assumed
Description: as §1, §2, §3

[27] = test system: Streptococcus pyogenes PIU 2548; details: organism code NN; BHI agar, 35-37° C., 20 to 24 hours; unit assumed
Description: as §1, §2, §3

| Compound | MIC [1] | MIC [2] | MIC [3] | MIC [4] | MIC [5] | MIC [6] | MIC [7] | MIC [8] | MIC [9] | MIC [10] | MIC [12] | MIC [13] | MIC [14] | MIC [15] | MIC [16] | MIC [17] | MIC [18] | MIC [19] | MIC [20] | MIC [21] | also measured |
| --- | --- | --- | --- | --- | --- | --- | --- | --- | --- | --- | --- | --- | --- | --- | --- | --- | --- | --- | --- | --- | --- |
| CC[C@H]1OC(=O)[C@H](C)C(=O)[C@H](C)[C@@H](O[C@@H]2O[C@H](C)C[C@H](N(C)C)[C@H]2O)[C@](C)(OCC#Cc2ccc(-c3cccc(C(F)(F)F)c3)s2)C[C@@H](C)C(=O)[C@H](C)[C@H]2NC(=O)O[C@@]21C [Example 19] | > 100 µg/mL | 0.39 µg/mL (≈ 0.452 µM) | > 100 µg/mL | > 100 µg/mL | 3.1 µg/mL (≈ 3.59 µM) | 4 µg/mL (≈ 4.63 µM) | 0.39 µg/mL (≈ 0.452 µM) | 0.2 µg/mL (≈ 0.232 µM) | 0.39 µg/mL (≈ 0.452 µM) | 0.39 µg/mL (≈ 0.452 µM) | 25 µg/mL (≈ 29 µM) | 0.39 µg/mL (≈ 0.452 µM) | 0.39 µg/mL (≈ 0.452 µM) | 0.39 µg/mL (≈ 0.452 µM) | 0.39 µg/mL (≈ 0.452 µM) | 0.39 µg/mL (≈ 0.452 µM) | 0.39 µg/mL (≈ 0.452 µM) | 1 µg/mL (≈ 1.16 µM) | 4 µg/mL (≈ 4.63 µM) | 0.125 µg/mL (≈ 0.145 µM) | MIC [11]: 12.5 µg/mL (≈ 14.5 µM); MIC [22]: 0.125 µg/mL (≈ 0.145 µM); MIC [23]: 0.05 µg/mL (≈ 0.0579 µM); MIC [24]: 0.05 µg/mL (≈ 0.0579 µM); MIC [25]: 3.1 µg/mL (≈ 3.59 µM); MIC [26]: 0.1 µg/mL (≈ 0.116 µM); MIC [27]: 0.39 µg/mL (≈ 0.452 µM) |
| CC[C@H]1OC(=O)[C@H](C)C(=O)[C@H](C)[C@@H](O[C@@H]2O[C@H](C)C[C@H](N(C)C)[C@H]2O)[C@](C)(OCC#Cc2ccc(-c3ccsc3)s2)C[C@@H](C)C(=O)[C@H](C)[C@H]2NC(=O)O[C@@]21C [Example 27] | > 100 µg/mL | 0.01 µg/mL (≈ 0.0125 µM) | 100 µg/mL (≈ 125 µM) | 100 µg/mL (≈ 125 µM) | 0.2 µg/mL (≈ 0.25 µM) | 2 µg/mL (≈ 2.5 µM) | 0.05 µg/mL (≈ 0.0624 µM) | ≤ 0.005 µg/mL | 0.2 µg/mL (≈ 0.25 µM) | 0.01 µg/mL (≈ 0.0125 µM) | 100 µg/mL (≈ 125 µM) | 0.05 µg/mL (≈ 0.0624 µM) | 0.05 µg/mL (≈ 0.0624 µM) | 0.05 µg/mL (≈ 0.0624 µM) | 0.05 µg/mL (≈ 0.0624 µM) | 0.05 µg/mL (≈ 0.0624 µM) | 0.05 µg/mL (≈ 0.0624 µM) | 0.25 µg/mL (≈ 0.312 µM) | 4 µg/mL (≈ 4.99 µM) | 0.015 µg/mL (≈ 0.0187 µM) | MIC [22]: 0.015 µg/mL (≈ 0.0187 µM); MIC [23]: ≤ 0.005 µg/mL; MIC [24]: ≤ 0.005 µg/mL; MIC [25]: 6.2 µg/mL (≈ 7.74 µM); MIC [26]: ≤ 0.005 µg/mL; MIC [27]: 0.1 µg/mL (≈ 0.125 µM) |
| CC[C@H]1OC(=O)[C@H](C)C(=O)[C@H](C)[C@@H](O[C@@H]2O[C@H](C)C[C@H](N(C)C)[C@H]2O)[C@](C)(OC/C=C/c2ccc(-c3cccc(F)c3)s2)C[C@@H](C)C(=O)[C@H](C)[C@H]2NC(=O)O[C@@]21C [Example 72] | > 100 µg/mL | 0.05 µg/mL (≈ 0.0613 µM) | > 100 µg/mL | > 100 µg/mL | 1.56 µg/mL (≈ 1.91 µM) | 8 µg/mL (≈ 9.82 µM) | 0.05 µg/mL (≈ 0.0613 µM) | 0.02 µg/mL (≈ 0.0245 µM) | 1.56 µg/mL (≈ 1.91 µM) | 0.39 µg/mL (≈ 0.479 µM) | 25 µg/mL (≈ 30.7 µM) | 0.2 µg/mL (≈ 0.245 µM) | 0.2 µg/mL (≈ 0.245 µM) | 0.2 µg/mL (≈ 0.245 µM) | 0.2 µg/mL (≈ 0.245 µM) | 0.2 µg/mL (≈ 0.245 µM) | 0.2 µg/mL (≈ 0.245 µM) | 1 µg/mL (≈ 1.23 µM) | 4 µg/mL (≈ 4.91 µM) | 0.125 µg/mL (≈ 0.153 µM) | MIC [11]: 25 µg/mL (≈ 30.7 µM); MIC [22]: 0.125 µg/mL (≈ 0.153 µM); MIC [23]: 0.01 µg/mL (≈ 0.0123 µM); MIC [24]: ≤ 0.005 µg/mL; MIC [25]: 12.5 µg/mL (≈ 15.3 µM); MIC [27]: 0.39 µg/mL (≈ 0.479 µM) |
